Assay results as given in US7439027B2, “Method for modulating process mediated by farnesoid activated receptors” (The Salk Institute for Biological Studies, priority 1995, dated 2008).

What was measured:
[1] = target: T1, FAR-RXRα complex (rat FAR and human RXRα) (Rattus norvegicus, UniProt Q62735, D356M/DEL339-355/E357R/INS337LPDTQTCWKKEFERAAS); test: hsp27-EcRE×5 MTV-luciferase reporter cotransfection in CV-1 cells expressing FAR and RXRα; assay type: cell-based
T1 construct: expressed in transfected cells; host or cells: CV-1 cells, CMV-driven expression vectors
T1 sequence (Q62735 1-469): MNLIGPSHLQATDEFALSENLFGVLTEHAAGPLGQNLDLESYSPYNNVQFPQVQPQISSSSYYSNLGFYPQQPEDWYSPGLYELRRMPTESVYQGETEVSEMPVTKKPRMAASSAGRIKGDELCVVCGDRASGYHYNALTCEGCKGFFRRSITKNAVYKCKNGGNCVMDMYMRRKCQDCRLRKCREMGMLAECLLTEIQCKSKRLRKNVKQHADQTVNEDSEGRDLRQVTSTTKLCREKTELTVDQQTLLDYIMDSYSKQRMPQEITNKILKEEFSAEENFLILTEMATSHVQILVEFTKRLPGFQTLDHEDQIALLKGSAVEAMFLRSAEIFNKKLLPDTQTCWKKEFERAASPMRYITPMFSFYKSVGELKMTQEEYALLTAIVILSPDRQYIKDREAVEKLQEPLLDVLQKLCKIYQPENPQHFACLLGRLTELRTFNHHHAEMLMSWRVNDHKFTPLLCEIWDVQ
T1 sequence (P19793 1-462 partner): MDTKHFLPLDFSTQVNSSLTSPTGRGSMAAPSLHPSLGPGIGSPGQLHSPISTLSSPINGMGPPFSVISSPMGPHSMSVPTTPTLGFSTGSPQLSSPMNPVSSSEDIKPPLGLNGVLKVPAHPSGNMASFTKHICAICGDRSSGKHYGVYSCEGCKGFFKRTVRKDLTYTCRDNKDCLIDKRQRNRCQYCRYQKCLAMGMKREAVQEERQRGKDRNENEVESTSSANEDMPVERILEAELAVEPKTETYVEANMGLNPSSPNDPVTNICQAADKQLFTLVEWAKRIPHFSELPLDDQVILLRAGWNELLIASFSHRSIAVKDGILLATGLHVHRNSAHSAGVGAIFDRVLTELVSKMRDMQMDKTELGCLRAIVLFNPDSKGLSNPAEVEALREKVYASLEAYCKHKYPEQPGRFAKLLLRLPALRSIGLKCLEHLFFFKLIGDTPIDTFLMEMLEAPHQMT
Procedure: Thus, CV-1 cells were grown in DMEM supplemented with 10% AG1-X8 resin-charcoal stripped calf bovine serum, 50 U/ml penicillin G and 50 μg/ml streptomycin sulfate (DMEM-CBS) at 37° C. in 5% CO2. One day prior to transfection, cells were plated to 50-80% confluence using phenol-red free DMEM with 10% resin charcoal stripped fetal bovine serum (DMEM-FBS). Cells were transfected (with reporter construct (300 ng/10^5 cells), cytomegalovirus driven receptor (100 ng/10^5 cells) and β-galactosidase expression vectors (500 ng/10^5 cells) as indicated in FIG. 4) by lipofection using N-{2-(2,3)-dioleoyloxy)propyl-N,N,N-trimethyl ammonium methyl sulfate} according to the manufacturer's instructions (DOTAP, Boehringer Mannheim). […] Cells were harvested and assayed for luciferase and β-galactosidase activity. […] Data points were normalized for differences in transfection efficiency using β-galactosidase, and plotted as relative activity where the untreated reporter is defined to have an activity of 1 unit.
Based on the identification of an EcRE as a DNA target, a reporter plasmid was constructed containing 5 copies of the hsp27 response element linked to a truncated mouse mammary tumor virus promoter (Yao et al., Nature 366:476-479 (1993)). This reporter was cotransfected into CV-1 cells alone, or with expression vectors for FAR and/or RXRα. Cotransfected cells were treated with a variety of potential ligands and monitored for changes in luciferase activity.
Thus, with reference to FIG. 5A, CV-1 cells were transiently transfected with hsp27-EcRE×5 MTV-luciferase alone (−) or with expression vectors for rat FAR and/or human RXRα. Reporter activity was assayed after treating cells with or without 50 μM JH III.
CV-1 cells were transiently transfected as described above with reference to FIG. 5A, but treated with or without 50 μM JH III, 100 nM LG69 and JH III+LG69.
Thus, CV-1 cells were transiently transfected with expression vectors for rat FR and human RXRα, as described above in Example 3. […] Data is plotted in FIG. 6A as fold activation relative to untreated cells.

HMG-CoA reductase = conditions: by a mevalonate-derived non-sterol; cited from earlier work

Structure (SMILES)	activation of FAR-RXRα (in words) ([1]; 50 μM, FIG. 6A)	activation of FAR-RXRα (in words) ([1]; 200 μM, cells cotransfected with a mevalonate transporter protein)	concentration added to cells at which down-regulation of HMG-CoA reductase activity occurs (HMG-CoA reductase)
C[C@H](CCC1OC1(C)C)[C@H]1CC[C@H]2[C@@H]3CC=C4C[C@@H](O)CC[C@]4(C)[C@H]3CC[C@]12C (some centres unmarked) [24,25-epoxycholesterol]	little or no activation	–	–
CC(C)=CCC/C(C)=C/CO [geraniol]	little or no activation	–	–
CC(C)=CCCC(C)=CCCC(C)=CC(=O)O [farnesoic acid]	little or no activation	–	–
CC(O)(CCO)CC(=O)O (centres unmarked) [mevalonate]	little or no activation	weak activity	> 100 µM
CC(C)=CCC/C(C)=C/CC/C(C)=C/CC/C=C(\C)CC/C=C(\C)CCC1OC1(C)C (centres unmarked) [squalene epoxide]	little or no activation	–	–
CC(C)=CCC/C(C)=C/CC/C(C)=C/CC/C=C(\C)CC/C=C(\C)CCC=C(C)C [squalene]	little or no activation	–	–
